Results: patent US6630165B2, “Methods for providing effective reboxetine therapy with once-a-day dosing” (priority 1999, dated 2003)

What was measured:
[1] = reboxetine elimination half-life and time to steady state; type: in vivo; details: about four elimination half lives after initiation of continuous intermittent dosing
Method: Generally, continuous dosing for a period equal to about four elimination half lives is required to obtain steady-state conditions. Accordingly, steady-state conditions are approached at approximately 52 hours following initiation of a continuous intermittent dosing regimen. Mean steady-state plasma reboxetine concentrations following dosing every 24 hours with 4 mg doses of reboxetine methanesulfonate in two different sustained release dosage forms, having T90 values of about 9 hours and about 18 hours, respectively, and following dosing every 12 hours with 2 mg doses of reboxetine methanesulfonate (total daily dose=4 mg) in an immediate release dosage form for a period of four days (96 hours) were simulated.

[2] = in vivo; cited from earlier work

- time at which steady-state conditions are approached [1]: approximately 52 hours
Structure (SMILES): CCOc1ccccc1OC(c1ccccc1)C1CNCCO1 (stereo not drawn) [Reboxetine, 2-[α(2-ethoxyphenoxy)benzyl]morpholine]
- elimination half-life (t1/2) [2]: about 13 hours
